In one assay the test system is HL-60. Kind of assay: Antiproliferative activity against human HL-60 cells assessed as inhibition of cell growth measured after 7 days by cell-titer glo assay. The assay is classed as functional, cell-based. The following applies: HL-60, 168 h.
For a further assay, the system named is THP-1. As to the kind of experiment: Antiproliferative activity against human THP-1 cells assessed as inhibition of cell growth measured after 7 days by cell-titer glo assay. The assay is classed as functional, cell-based. The following applies: THP-1, 168 h.
The next assay concerns MV4-11. Kind of assay: Antiproliferative activity against human MV4-11 cells assessed as inhibition of cell growth measured after 7 days by cell-titer glo assay. The assay is classed as functional, cell-based. As to conditions: MV4-11, 168 h.
Assay [1] concerns the target Lysine-specific histone demethylase 1A (Homo sapiens, UniProt O60341). Kind of assay: Inhibition of human recombinant LSD1 (852 residues) incubated for 1 hr by HTRF method. On the technique in general: In TR-FRET formats the signal depends on donor and acceptor labels being close together.
The target of assay [2] is Voltage-gated inwardly rectifying potassium channel KCNH2 (Homo sapiens, UniProt Q12809). Kind of assay: Inhibition of human ERG by whole cell patch clamp assay. The assay is classed as toxicity. (In general: In patch-clamp work, channel activity is measured electrically.)
Sequence of Voltage-gated inwardly rectifying potassium channel KCNH2 (Q12809 whole entry): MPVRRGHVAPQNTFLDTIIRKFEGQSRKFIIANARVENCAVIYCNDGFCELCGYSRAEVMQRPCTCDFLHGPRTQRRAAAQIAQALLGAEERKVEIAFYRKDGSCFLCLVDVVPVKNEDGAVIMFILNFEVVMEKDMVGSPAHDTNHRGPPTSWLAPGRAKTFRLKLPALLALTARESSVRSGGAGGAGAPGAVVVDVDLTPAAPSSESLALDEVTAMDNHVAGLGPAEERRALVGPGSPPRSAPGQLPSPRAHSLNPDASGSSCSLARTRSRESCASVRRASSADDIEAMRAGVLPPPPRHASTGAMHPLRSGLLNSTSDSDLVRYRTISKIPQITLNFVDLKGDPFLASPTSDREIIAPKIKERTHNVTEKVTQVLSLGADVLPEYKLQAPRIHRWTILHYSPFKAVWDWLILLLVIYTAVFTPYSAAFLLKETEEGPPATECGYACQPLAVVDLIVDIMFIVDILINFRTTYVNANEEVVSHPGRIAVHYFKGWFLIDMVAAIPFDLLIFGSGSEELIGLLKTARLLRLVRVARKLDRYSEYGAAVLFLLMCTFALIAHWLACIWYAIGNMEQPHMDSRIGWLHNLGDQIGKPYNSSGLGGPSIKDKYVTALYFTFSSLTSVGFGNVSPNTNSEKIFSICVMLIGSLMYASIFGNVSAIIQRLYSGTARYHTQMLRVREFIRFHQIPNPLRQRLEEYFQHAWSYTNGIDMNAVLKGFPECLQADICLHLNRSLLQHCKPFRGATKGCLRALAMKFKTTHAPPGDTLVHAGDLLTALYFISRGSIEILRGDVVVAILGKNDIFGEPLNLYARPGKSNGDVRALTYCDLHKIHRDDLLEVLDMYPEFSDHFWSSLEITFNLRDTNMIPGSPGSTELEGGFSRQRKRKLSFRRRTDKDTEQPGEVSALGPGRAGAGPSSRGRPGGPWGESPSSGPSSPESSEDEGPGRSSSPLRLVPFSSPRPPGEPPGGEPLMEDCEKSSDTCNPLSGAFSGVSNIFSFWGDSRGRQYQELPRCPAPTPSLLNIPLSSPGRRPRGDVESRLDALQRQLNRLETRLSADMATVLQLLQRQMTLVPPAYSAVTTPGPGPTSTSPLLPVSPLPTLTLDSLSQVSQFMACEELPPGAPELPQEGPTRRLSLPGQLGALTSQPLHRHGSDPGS

Each structure is given as a SMILES string.

As usually defined, the IC50 is the point on the concentration scale where inhibition reaches its midpoint. In the case of `Fc1ccc([C@@H]2C[C@H]2NCc2cn(-c3n[nH]c4ccccc34)nn2)cc1F`, the IC50 in the assay on HL-60 is over 25 µM; in the assay with THP-1, over 25 µM; with MV4-11 it was over 25 µM; in assay [1], 0.0051 µM.
As to `O=C(C1CCCC1)n1ncc2cc(-n3cc(CN[C@@H]4C[C@H]4c4ccc(F)c(F)c4)nn3)ccc21`, the IC50 in the assay with HL-60 was 3.44 µM; in the assay with THP-1, 8.37 µM; in the assay with MV4-11, 8.25 µM; in assay [1] it was 0.012 µM.
`Fc1ccc([C@@H]2C[C@H]2NCc2cn(-c3ccc4[nH]ncc4c3)nn2)cc1F` displayed a concentration for half-maximal inhibition (IC50) in assay [2] of 0.61 µM.
In the case of `CCS(=O)(=O)n1ncc2cc(-n3cc(CN[C@@H]4C[C@H]4c4ccc(F)c(F)c4)nn3)ccc21`, the IC50 in the assay with HL-60 turned out to be 6.81 µM; in the assay on THP-1 it was 4.59 µM; in the assay on MV4-11 it was 11.5 µM; in assay [1] it was 0.00777 µM.
As to `Fc1ccc([C@@H]2C[C@H]2NCc2cn(-c3cccc4[nH]ncc34)nn2)cc1F`, the half-maximal inhibitory concentration (IC50) was 15.5 µM in the assay on HL-60, 3.95 µM in the assay with THP-1, 12.5 µM with MV4-11 and 0.00663 µM in assay [1].
The corresponding values for `O=C(Cc1ccccc1)n1ncc2cc(-n3cc(CN[C@@H]4C[C@H]4c4ccc(F)c(F)c4)nn3)ccc21` are 2.83 µM, 8.32 µM, 7.84 µM and 0.0156 µM.
With `Fc1ccc([C@@H]2C[C@H]2NCc2cn(Cc3ccc4[nH]ncc4c3)nn2)cc1F`, the half-maximal inhibitory concentration (IC50) in the assay with HL-60 turned out to be 2.47 µM; in the assay with THP-1, 6.34 µM; with MV4-11, 6.56 µM; in assay [1] it was 0.0115 µM.
Turning to `CS(=O)(=O)n1ncc2cc(-n3cc(CN[C@@H]4C[C@H]4c4ccc(F)c(F)c4)nn3)ccc21`, the concentration for half-maximal inhibition (IC50) with HL-60 worked out at 2.41 µM; in the assay with THP-1, 24.3 µM; in the assay with MV4-11, 3.31 µM; in assay [1] it was 0.0146 µM.
For `O=S(=O)(C1CCCCC1)n1ncc2cc(-n3cc(CN[C@@H]4C[C@H]4c4ccc(F)c(F)c4)nn3)ccc21`, in that order: 1.88 µM, 2.41 µM, 4.33 µM and 0.00482 µM.
For `Fc1ccc([C@@H]2C[C@H]2NCc2cn(-c3ccc4c(cnn4CC(F)(F)F)c3)nn2)cc1F`, in that order: 1.86 µM, 5.01 µM, 10.9 µM and 0.00159 µM.
The corresponding values for `O=S(=O)(C1CC1)n1ncc2cc(-n3cc(CN[C@@H]4C[C@H]4c4ccc(F)c(F)c4)nn3)ccc21` are 5.57 µM, 3.39 µM, 6.32 µM and 0.0043 µM.
With `COc1cc2[nH]ncc2cc1-n1cc(CN[C@@H]2C[C@H]2c2ccc(F)c(F)c2)nn1`, the IC50 in the assay on HL-60 worked out at 10.9 µM; with THP-1 it was 12.6 µM; with MV4-11, 8.74 µM; in assay [1], 0.00346 µM.
With `O=C(C1CCCCC1)n1ncc2cc(-n3cc(CN[C@@H]4C[C@H]4c4ccc(F)c(F)c4)nn3)ccc21`, the IC50 in the assay on HL-60 is 3 µM; with THP-1 it was 5.57 µM; in the assay on MV4-11 it was 9.67 µM; in assay [1], 0.0159 µM.
In the case of `CC(C)C(=O)n1ncc2cc(-n3cc(CN[C@@H]4C[C@H]4c4ccc(F)c(F)c4)nn3)ccc21`, the IC50 with HL-60 amounted to 3.42 µM; with THP-1 it was 3.59 µM; in the assay with MV4-11, 3.89 µM; in assay [1], 0.00997 µM.
`Fc1ccc([C@@H]2C[C@H]2NCc2cn(-c3ccc4cn[nH]c4c3)nn2)cc1F`: the IC50 in the assay with HL-60 was over 25 µM; in the assay with THP-1, 3.76 µM; in the assay on MV4-11, over 25 µM; in assay [1], 0.0144 µM.
Regarding `O=C(C1CC1)n1ncc2cc(-n3cc(CN[C@@H]4C[C@H]4c4ccc(F)c(F)c4)nn3)ccc21`, the half-maximal inhibitory concentration (IC50) in the assay with HL-60 was 5.5 µM; in the assay on THP-1, 5.94 µM; in the assay on MV4-11 it was 2.61 µM; in assay [1], 0.0123 µM.
For `O=C(c1ccccc1)n1ncc2cc(-n3cc(CN[C@@H]4C[C@H]4c4ccc(F)c(F)c4)nn3)ccc21`, in that order: 2.81 µM, 12.9 µM, 6.3 µM and 0.00755 µM.
In the case of `Fc1ccc([C@@H]2C[C@H]2NCc2cn(CCc3ccc4[nH]ncc4c3)nn2)cc1F`, the IC50 in assay [1] was found to be 0.0579 µM.
Take `CC(=O)n1ncc2cc(-n3cc(CN[C@@H]4C[C@H]4c4ccc(F)c(F)c4)nn3)ccc21`: the half-inhibitory concentration (IC50) turned out to be 4.22 µM in the assay with HL-60, 5.4 µM in the assay on THP-1, 3.87 µM in the assay on MV4-11 and 0.0084 µM in assay [1].
For the compound `O=C(C1CCC1)n1ncc2cc(-n3cc(CN[C@@H]4C[C@H]4c4ccc(F)c(F)c4)nn3)ccc21`, the IC50 stood at 6.12 µM in the assay with HL-60, 10.9 µM in the assay with THP-1, 5.51 µM in the assay with MV4-11 and 0.0155 µM in assay [1].
As to `Cn1ncc2cc(-n3cc(CN[C@@H]4C[C@H]4c4ccc(F)c(F)c4)nn3)ccc21`, the IC50 in the assay on HL-60 was 2.49 µM; in the assay with THP-1, 4.52 µM; with MV4-11, 17.1 µM; in assay [1], 0.00462 µM.
The corresponding values for `Fc1ccc([C@@H]2C[C@H]2NCc2cn(-c3cc4cn[nH]c4cc3F)nn2)cc1F` are 7.44 µM, 7.5 µM, 6.86 µM and 0.00645 µM.
For `Cc1cc2[nH]ncc2cc1-n1cc(CN[C@@H]2C[C@H]2c2ccc(F)c(F)c2)nn1`, in that order: 4.11 µM, 5.7 µM, 6.28 µM and 0.0111 µM.
For `CCn1ncc2cc(-n3cc(CN[C@@H]4C[C@H]4c4ccc(F)c(F)c4)nn3)ccc21`, in that order: 7.83 µM, 6.52 µM, 3.52 µM and 0.0038 µM.
`CCC(=O)n1ncc2cc(-n3cc(CN[C@@H]4C[C@H]4c4ccc(F)c(F)c4)nn3)ccc21`: the IC50 in the assay with HL-60 stood at 1.53 µM; in the assay on THP-1, 7.29 µM; with MV4-11, 2.56 µM; in assay [1], 0.0116 µM.
`Fc1ccc([C@@H]2C[C@H]2NCc2cn(-c3cnc4[nH]ncc4c3)nn2)cc1F`: the half-inhibitory concentration (IC50) in assay [1] is 0.0209 µM.
With `Fc1ccc([C@@H]2C[C@H]2NCc2cn(-c3ccc4c(cnn4Cc4ccccc4)c3)nn2)cc1F`, the IC50 with HL-60 was 3.83 µM; with THP-1, 1.67 µM; in the assay with MV4-11, 4.08 µM; in assay [1], 0.00828 µM.
On to `Fc1ccc([C@@H]2C[C@H]2NCc2cn(-c3ccc4c(cnn4C4CCCC4)c3)nn2)cc1F`, for which the half-maximal inhibitory concentration (IC50) amounted to 4.05 µM with HL-60, 3.88 µM with THP-1, 2.86 µM in the assay with MV4-11 and 0.00414 µM in assay [1].

For the origin of these results see ChEMBL document CHEMBL6134819, “Discovery of novel tranylcypromine-indazole-based derivatives as LSD1 inhibitors for acute myeloid leukemia treatment” (Eur J Med Chem, 2025).
